In patent publication US20150105252A1, “SUBSTITUTED PYRAZOLES AS HERBICIDES” (E I DU PONT DE NEMOURS AND COMPANY, priority 2013, published 2015):

What was measured:
[1] = tested on: bromegrass, downy; assay: Test D preemergence; assay type: in vivo, Bromus tectorum; conditions: scale 0 to 100
How it was run: (§1)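 Preemergence: seeds sown in silt loam soil and sprayed with test chemical in non-phytotoxic solvent mixture with surfactant. Postemergence: plants grown in peat/vermiculite medium, sprayed at 2–18 cm (1- to 4-leaf stage). Visual rating versus untreated controls after 14–21 days, 0 (no effect) to 100 (complete control).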

[2] = tested on: lambsquarters; assay: Test D postemergence; assay type: in vivo, Chenopodium album; conditions: scale 0 to 100
How it was run: as §1

[3] = tested on: oilseed rape; assay: Test D postemergence; assay type: in vivo, Brassica napus; conditions: scale 0 to 100
How it was run: as §1

[4] = tested on: barley, spring; assay: Test D postemergence; assay type: in vivo, Hordeum vulgare; conditions: scale 0 to 100
How it was run: as §1

[5] = tested on: barley, winter; assay: Test D postemergence; assay type: in vivo, Hordeum vulgare; conditions: scale 0 to 100
How it was run: as §1

[6] = tested on: wheat, spring; assay: Test D postemergence; assay type: in vivo, Triticum aestivum; conditions: scale 0 to 100
How it was run: as §1

[7] = tested on: wheat, winter; assay: Test D postemergence; assay type: in vivo, Triticum aestivum; conditions: scale 0 to 100
How it was run: as §1

[8] = tested on: oat, wild; assay: Test D postemergence; assay type: in vivo, Avena fatua; conditions: scale 0 to 100
How it was run: as §1

[9] = tested on: common waterhemp; assay: Test F preemergence; assay type: in vivo, Amaranthus rudis
How it was run: (§2)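 Seeds were sown in silt loam and sprayed preemergence with compound in a non-phytotoxic solvent mixture containing surfactant. Postemergence sprays went onto plants 2 to 18 cm tall (1- to 4-leaf stage). After 14 to 21 days in a greenhouse, injury was rated visually against untreated controls, 0 (no effect) to 100 (complete control).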

[10] = tested on: giant foxtail; assay: Test F preemergence; assay type: in vivo, Setaria faberii
How it was run: as §2

[11] = tested on: green foxtail; assay: Test F preemergence; assay type: in vivo, Setaria viridis
How it was run: as §2

[12] = tested on: barnyardgrass; assay: Test F preemergence; assay type: in vivo, Echinochloa crus-galli
How it was run: as §2

[13] = tested on: field bindweed; assay: Test F preemergence; assay type: in vivo, Convolvulus arvensis
How it was run: as §2

[14] = Preemergence, 31 g ai/ha, scale 0 to 100
[15] = Preemergence, 62 g ai/ha, scale 0 to 100
[16] = Preemergence, 125 g ai/ha, scale 0 to 100
[17] = preemergence, 8 g ai/ha, scale 0 to 100, 100 is complete control
[18] = preemergence, 16 g ai/ha, scale 0 to 100, 100 is complete control
[19] = Preemergence, 16 g ai/ha, scale 0 to 100

CCCc1cc(C(=O)NCC(F)(F)F)nn1Cc1ccnc(C(F)(F)F)c1 [Compound 105]
Plant response rating, Bromegrass, Downy ([1]; 31 g ai/ha): 5
Plant response rating, Bromegrass, Downy ([1]; 62 g ai/ha): 15
Plant response rating, Bromegrass, Downy ([1]; 125 g ai/ha): 55
Plant response rating, Bromegrass, Downy ([1]; 250 g ai/ha): 95
Lambsquarters plant response rating ([2]; Postemergence, 31 g ai/ha): 40
Lambsquarters plant response rating ([2]; Postemergence, 125 g ai/ha): 70
Lambsquarters plant response rating ([2]; Postemergence, 250 g ai/ha): 80
Lambsquarters plant response rating ([2]; postemergence, 62 g ai/ha): 65
Oilseed Rape plant response rating ([3]; Postemergence, 31 g ai/ha): 40
Oilseed Rape plant response rating ([3]; Postemergence, 125 g ai/ha): 70
Oilseed Rape plant response rating ([3]; Postemergence, 250 g ai/ha): 85
Oilseed Rape plant response rating ([3]; postemergence, 62 g ai/ha): 60
Barley, Spring plant response rating ([4]; Postemergence, 31 g ai/ha): 10
Barley, Spring plant response rating ([4]; Postemergence, 125 g ai/ha): 30
Barley, Spring plant response rating ([4]; Postemergence, 250 g ai/ha): 45
Barley, Spring plant response rating ([4]; postemergence, 62 g ai/ha): 10
Barley, Winter plant response rating ([5]; Postemergence, 31 g ai/ha): 10
Barley, Winter plant response rating ([5]; Postemergence, 125 g ai/ha): 20
Barley, Winter plant response rating ([5]; Postemergence, 250 g ai/ha): 30
Barley, Winter plant response rating ([5]; postemergence, 62 g ai/ha): 10
Wheat, Spring plant response rating ([6]; Postemergence, 31 g ai/ha): 5
Wheat, Spring plant response rating ([6]; Postemergence, 125 g ai/ha): 20
Wheat, Spring plant response rating ([6]; Postemergence, 250 g ai/ha): 40
Wheat, Spring plant response rating ([6]; postemergence, 62 g ai/ha): 10
Wheat, Winter plant response rating ([7]; Postemergence, 31 g ai/ha): 10
Wheat, Winter plant response rating ([7]; Postemergence, 125 g ai/ha): 40
Wheat, Winter plant response rating ([7]; Postemergence, 250 g ai/ha): 70
Wheat, Winter plant response rating ([7]; postemergence, 62 g ai/ha): 15
Oat, Wild plant response rating ([8]; Postemergence, 31 g ai/ha): 15
Oat, Wild plant response rating ([8]; Postemergence, 125 g ai/ha): 25
Oat, Wild plant response rating ([8]; Postemergence, 250 g ai/ha): 50
Oat, Wild plant response rating ([8]; postemergence, 62 g ai/ha): 20
Plant response rating, Common Waterhemp [9, 14]: 100
Plant response rating, Common Waterhemp [9, 15]: 100
Plant response rating, Common Waterhemp [9, 16]: 100
Plant response rating, Common Waterhemp [9, 17]: 75
Plant response rating, Common Waterhemp [9, 18]: 100
Plant response rating, Giant Foxtail [10, 14]: 100
Plant response rating, Giant Foxtail [10, 15]: 100
Plant response rating, Giant Foxtail [10, 16]: 100
Plant response rating, Giant Foxtail [10, 17]: 10
Plant response rating, Giant Foxtail [10, 18]: 65
Plant response rating, Green Foxtail [11, 14]: 75
Plant response rating, Green Foxtail [11, 15]: 100
Plant response rating, Green Foxtail [11, 16]: 100
Plant response rating, Green Foxtail [11, 17]: 0
Plant response rating, Green Foxtail [11, 18]: 25
Plant response rating, Barnyardgrass [12, 14]: 30
Plant response rating, Barnyardgrass [12, 15]: 98
Plant response rating, Barnyardgrass [12, 16]: 98
Plant response rating, Barnyardgrass [12, 17]: 0
Plant response rating, Barnyardgrass [12, 18]: 5
Plant response rating, Field Bindweed [13, 14]: 75
Plant response rating, Field Bindweed [13, 15]: 40
Plant response rating, Field Bindweed [13, 16]: 100
Plant response rating, Field Bindweed [13, 17]: 0
Plant response rating, Field Bindweed [13, 18]: 10

CCOc1cc(C(=O)NC(C)C)nn1Cc1ccnc(C(F)(F)F)c1 [Compound 188]
Plant response rating, Bromegrass, Downy ([1]; 31 g ai/ha): 20
Plant response rating, Bromegrass, Downy ([1]; 62 g ai/ha): 75
Plant response rating, Bromegrass, Downy ([1]; 125 g ai/ha): 85
Plant response rating, Bromegrass, Downy ([1]; 250 g ai/ha): 100
Lambsquarters plant response rating ([2]; Postemergence, 31 g ai/ha): 70
Lambsquarters plant response rating ([2]; Postemergence, 125 g ai/ha): 80
Lambsquarters plant response rating ([2]; Postemergence, 250 g ai/ha): 90
Lambsquarters plant response rating ([2]; postemergence, 62 g ai/ha): 70
Oilseed Rape plant response rating ([3]; Postemergence, 31 g ai/ha): 55
Oilseed Rape plant response rating ([3]; Postemergence, 125 g ai/ha): 55
Oilseed Rape plant response rating ([3]; Postemergence, 250 g ai/ha): 70
Oilseed Rape plant response rating ([3]; postemergence, 62 g ai/ha): 55
Barley, Spring plant response rating ([4]; Postemergence, 31 g ai/ha): 15
Barley, Spring plant response rating ([4]; Postemergence, 125 g ai/ha): 25
Barley, Spring plant response rating ([4]; Postemergence, 250 g ai/ha): 65
Barley, Spring plant response rating ([4]; postemergence, 62 g ai/ha): 15
Barley, Winter plant response rating ([5]; Postemergence, 31 g ai/ha): 15
Barley, Winter plant response rating ([5]; Postemergence, 125 g ai/ha): 40
Barley, Winter plant response rating ([5]; Postemergence, 250 g ai/ha): 65
Barley, Winter plant response rating ([5]; postemergence, 62 g ai/ha): 15
Wheat, Spring plant response rating ([6]; Postemergence, 31 g ai/ha): 10
Wheat, Spring plant response rating ([6]; Postemergence, 125 g ai/ha): 15
Wheat, Spring plant response rating ([6]; Postemergence, 250 g ai/ha): 40
Wheat, Spring plant response rating ([6]; postemergence, 62 g ai/ha): 10
Wheat, Winter plant response rating ([7]; Postemergence, 31 g ai/ha): 25
Wheat, Winter plant response rating ([7]; Postemergence, 125 g ai/ha): 30
Wheat, Winter plant response rating ([7]; Postemergence, 250 g ai/ha): 65
Wheat, Winter plant response rating ([7]; postemergence, 62 g ai/ha): 25
Oat, Wild plant response rating ([8]; Postemergence, 31 g ai/ha): 15
Oat, Wild plant response rating ([8]; Postemergence, 125 g ai/ha): 25
Oat, Wild plant response rating ([8]; Postemergence, 250 g ai/ha): 70
Oat, Wild plant response rating ([8]; postemergence, 62 g ai/ha): 15
Plant response rating, Common Waterhemp [9, 19]: 100
Plant response rating, Common Waterhemp [9, 15]: 100
Plant response rating, Common Waterhemp [9, 16]: 100
Plant response rating, Common Waterhemp [9, 17]: 85
Plant response rating, Giant Foxtail [10, 15]: 100
Plant response rating, Giant Foxtail [10, 16]: 100
Plant response rating, Giant Foxtail [10, 17]: 5
Plant response rating, Green Foxtail [11, 15]: 100
Plant response rating, Green Foxtail [11, 16]: 100
Plant response rating, Green Foxtail [11, 17]: 5
Plant response rating, Barnyardgrass [12, 19]: 25
Plant response rating, Barnyardgrass [12, 15]: 80
Plant response rating, Barnyardgrass [12, 16]: 100
Plant response rating, Barnyardgrass [12, 17]: 0
Plant response rating, Field Bindweed [13, 19]: 30
Plant response rating, Field Bindweed [13, 15]: 40
Plant response rating, Field Bindweed [13, 16]: 100
Plant response rating, Field Bindweed [13, 17]: 35
